Results as given in ChEMBL document CHEMBL5260858, “Targeting mycobacterial membranes and membrane proteins: Progress and limitations” (Bioorg Med Chem, 2023).
≈ marks a conversion by molar mass, not a printed value.

Tested on: Mycobacterium tuberculosis
Assay: Antitubercular activity against Mycobacterium africanum ATCC 25420 assessed as bacterial growth inhibition by agar dilution method
Assay type: functional
Details: variant africanum ATCC 25420

SMILES: O=C1CCc2c(cccc2OC[C@]2(O)CCN(c3c(F)cc(Cl)cc3F)C[C@H]2O)N1
- MIC: 2 ng/mL (≈ 4.56 nM)
